In one assay the test system is Primary human T-cells. The assay is described as follows: Primary Human T-Cell Proliferation Assay Stimulated with IL-2 (CellTiter-Glo). It is filed as cell-based. The note with it: primary human T-cell proliferation stimulated with IL-2; read-out: IC50, Example 42. The procedure, abridged:
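IC50 derived from CellTiter-Glo ATP signal after 72 hours of IL-2-driven proliferation at 37° C. Cells: primary human T-cells from blood, stimulated beforehand 3-4 days on anti-CD3/anti-CD28 with IL-2, then rested from IL-2 before compound exposure in duplicate; IL-2-free wells served as unstimulated control.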
On the technique in general: In ATP-based viability assays light output follows the ATP content of the culture.

For assay [1], the system named is IL-4 stimulated expression of CD23 in human Ramos B cells (JAK-1 and JAK-3). The assay is described as follows: Assay for Ramos B-Cell Line Stimulated with IL-4 (CD23 upregulation, FACS). It is filed as cell-based. The note with it: Ramos B-cell line stimulated with IL-4; CD23 expression by FACS; read-out: IC50, Example 41. Put shortly:
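Human Ramos B cells in RPMI with 5% serum were pre-incubated with compound or DMSO for 1 h at 37 °C, then stimulated with IL-4 at a final 50 units/mL for 20-24 h. CD23 upregulation was measured by anti-CD23-PE staining and flow cytometry, and IC50 values were calculated.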

A word on the IC50: it is the concentration that inhibits the measured activity by half.

For the compound `CCN(CC)CCNS(=O)(=O)c1cccc(Nc2ncc(F)c(Nc3ccc(OCc4csc(C)n4)cc3)n2)c1` [Compound I-283, N2-[3-(2-N,N-Diethylaminoethyl)aminosulfonylphenyl)-5-fluoro-N4-[4-(2-methylthizol-4-yl)methyleneoxyphenyl]-2,4-pyrimidinediamine], the IC50 with Primary human T-cells worked out at 362 nM; in assay [1], 518 nM.

Take `CCN(CC)CCNS(=O)(=O)c1ccc(Nc2ncc(F)c(Nc3ccc(OCc4csc(C)n4)cc3)n2)cc1` [Compound I-284, N2-[4-(2-N,N-Diethylaminoethyl)aminosulfonylphenyl)-5-fluoro-N4-[4-(2-methylthizol-4-yl)methyleneoxyphenyl]-2,4-pyrimidinediamine]: the figures for the concentration for half-maximal inhibition (IC50) (with Primary human T-cells; in assay [1]) were 421 nM and 136 nM, respectively.

In the case of `Cc1nc(COc2ccc(Nc3nc(Nc4ccc(S(N)(=O)=O)cc4)ncc3F)cc2)cs1` [Compound I-285, N2-(4-Aminosulfonylphenyl)-5-fluoro-N4-[4-(2-methylthiazol-4-yl)methyleneoxyphenyl]-2,4-pyrimidinediamine], the IC50 in the assay on Primary human T-cells worked out at 314 nM; in assay [1] it was 133 nM.

`CN1CCC(Oc2ccc(Nc3nc(Nc4cccc(S(N)(=O)=O)c4)ncc3F)cc2)C1` (stereo not drawn) [II-9, N2-(3-Aminosulfonylphenyl)-5-fluoro-N4-(N-methylpyrrolidin-3-yloxyphenyl)-2,4-pyrimidinediamine]: the concentration for half-maximal inhibition (IC50) in the assay with Primary human T-cells was 1320 nM; in assay [1] it was 232 nM.

Regarding `Cc1ccc(Nc2ncc(F)c(Nc3ccc(OC4CCN(C)C4)cc3)n2)cc1S(N)(=O)=O` (stereo not drawn) [II-10, N2-(3-Aminosulfonyl-4-methylphenyl)-5-fluoro-N4-(N-methylpyrrolidin-3-yloxyphenyl)-2,4-pyrimidinediamine], the IC50 in the assay with Primary human T-cells amounted to 876 nM; in assay [1] it was 369 nM.

For `CNS(=O)(=O)c1cc(Nc2ncc(F)c(Nc3ccc(CC#N)cc3)n2)ccc1C` [III-1, 5-Fluoro-N2-[3-(N-methylaminosulfony)-4-methylphenyl]-5-fluoro-N4-(4-cyanomethylphenyl)-2,4-pyrimidinediamine], the values for the IC50 (in the assay on Primary human T-cells; in assay [1]) were 545 nM and 151 nM, respectively.

Consider `CCN(CC)CCNS(=O)(=O)c1ccc(Nc2ncc(F)c(Nc3ccc(CC#N)cc3)n2)cc1` [III-2, N2-[4-(2-N,N-Diethylaminoethyl)aminosulfonylphenyl)-5-fluoro-N4-(4-cyanomethylphenyl)-2,4-pyrimidinediamine], for which the IC50 in the assay on Primary human T-cells worked out at 3440 nM; in assay [1] it was 224 nM.

As to `N#CCc1ccc(Nc2nc(Nc3cccc(S(N)(=O)=O)c3)ncc2F)cc1` [III-4, N2-(3-Aminosulfonyl)phenyl-N4-(4-cyanomethyl)phenyl-5-fluoro-2,4-pyrimidinediamine], the half-inhibitory concentration (IC50) was determined as 171 nM with Primary human T-cells and 18.7 nM in assay [1].

As to `Cc1ccc(Nc2ncc(F)c(Nc3ccc(CC#N)cc3)n2)cc1S(N)(=O)=O` [III-7, N2-(3-Aminosulfonyl-4-methyl)phenyl-N4-(4-cyanomethyl)phenyl-5-fluoro-2,4-pyrimidinediamine], the half-inhibitory concentration (IC50) with Primary human T-cells came out at 195 nM; in assay [1], 85.1 nM.

With `N#CCc1ccc(Nc2nc(Nc3ccc(Cl)c(S(N)(=O)=O)c3)ncc2F)cc1` [III-8, N2-(3-Aminosulfonyl-4-chloro)phenyl-N4-(4-cyanomethyl)phenyl-5-fluoro-2,4-pyrimidinediamine], the IC50 in the assay with Primary human T-cells was found to be 921 nM; in assay [1] it was 138 nM.

For the compound `COc1cc(Nc2ncc(F)c(Nc3ccc(CC#N)cc3)n2)ccc1S(N)(=O)=O` [III-9, N2-(4-Aminosulfonyl-3-methoxy)phenyl-N4-(4-cyanomethyl)phenyl-5-fluoro-2,4-pyrimidinediamine], the results for the IC50 (in the assay on Primary human T-cells; in assay [1]) were 1800 nM and 215 nM, respectively.

For `N#CCc1ccc(Nc2nc(Nc3ccc(F)c(S(N)(=O)=O)c3)ncc2F)cc1` [III-10, N2-(3-Aminosulfonyl-4-fluoro)phenyl-N4-(4-cyanomethyl)phenyl-5-fluoro-2,4-pyrimidinediamine], the half-inhibitory concentration (IC50) with Primary human T-cells came out at 922 nM; in assay [1], 225 nM.

Consider `Cc1ccc(Nc2ncc(C)c(Nc3ccc(CCC#N)cc3)n2)cc1S(N)(=O)=O` [III-11], for which the figures for the 50% inhibitory concentration (IC50) (in the assay on Primary human T-cells; in assay [1]) were 46 nM and 64.2 nM, respectively.

`N#CCCc1ccc(Nc2nc(Nc3cccc(S(N)(=O)=O)c3)ncc2F)cc1` [III-14, N2-(3-aminosulfonylphenyl)-N4-[4-(cyanoethylene)phenyl]-5-fluoro-2,4-pyrimidinediamine]: the half-maximal inhibitory concentration (IC50) in the assay on Primary human T-cells turned out to be 52.6 nM; in assay [1], 140 nM.

Consider `Cc1ccc(Nc2ncc(F)c(Nc3ccc(CCC#N)cc3)n2)cc1S(N)(=O)=O` [III-15, N2-(3-Aminosulfonyl-4-methylphenyl)-N4-[4-(cyanoethylene)phenyl]-5-fluoro-2,4-pyrimidinediamine], for which the 50% inhibitory concentration (IC50) was determined as 107 nM in the assay on Primary human T-cells and 76 nM in assay [1].

With `N#CCCc1ccc(Nc2nc(Nc3ccc(F)c(S(N)(=O)=O)c3)ncc2F)cc1` [III-16, N2-(3-Aminosulfonyl-4-fluorophenyl)-N4-[4-(cyanoethylene)phenyl]-5-fluoro-2,4-pyrimidinediamine], the IC50 in the assay with Primary human T-cells is 342 nM; in assay [1] it was 273 nM.

For `Cc1cnc(Nc2ccc(S(N)(=O)=O)cc2)nc1Nc1ccc(CCC#N)cc1` [III-27, N2-(4-Aminosulfonylphenyl)-N4-(4-cyanoethylenephenyl)-5-methyl-2,4-pyrimidinediamine], the half-maximal inhibitory concentration (IC50) was 119 nM with Primary human T-cells and 58.3 nM in assay [1].

For `N#CCCc1ccc(Nc2nc(Nc3cccc(S(N)(=O)=O)c3)ncc2F)cc1C(F)(F)F` [III-31, N4-(4-Cyanoethylene-3-trifluoromethylphenyl)-5-fluoro-N2-(3-aminosulfonylphenyl)-2,4-pyrimidinediamine], the half-maximal inhibitory concentration (IC50) in the assay on Primary human T-cells was found to be 328 nM; in assay [1], 95.4 nM.

With `NS(=O)(=O)c1cccc(Nc2ncc(F)c(Nc3cccc(CNC(=O)C4CC4)c3)n2)c1` [III-39, N2-(3-aminosulfonyl)phenyl-N4-(3-cyclopropylcarbonylaminomethyl)phenyl-5-fluoro-2,4-pyrimidinediamine], the figures for the IC50 (with Primary human T-cells; in assay [1]) were 130 nM and 117 nM, respectively.

`Cc1ccc(Nc2ncc(F)c(Nc3cccc(CNC(=O)C4CC4)c3)n2)cc1S(N)(=O)=O` [III-40, N2-(3-aminosulfonyl-4-methyl)phenyl-N4-(3-cyclopropylcarbonylaminomethyl)phenyl-5-fluoro-2,4-pyrimidinediamine]: the values for the IC50 (with Primary human T-cells; in assay [1]) were 229 nM and 134 nM, respectively.

With `NS(=O)(=O)c1cccc(Nc2ncc(F)c(Nc3ccc(Cc4ccncc4)cc3)n2)c1` [III-70, N2-(3-Aminosulfonylphenyl)-5-fluoro-N4-[4-(4-pyridinylmethyl)phenyl]-2,4-pyrimidinediamine], the IC50 stood at 169 nM in the assay with Primary human T-cells and 64.5 nM in assay [1].

For “N2-(3-Aminocarbonyl-5-methylphenyl)-5-fluoro-N2-[4-(1-ethylpyrazol-5-yl)amidophenyl)-2,4-pyrimidinediamine [II-20]”, the figures for the half-inhibitory concentration (IC50) (in the assay on Primary human T-cells; in assay [1]) were 969 nM and 428 nM, respectively.

For “N2-(3-Aminocarbonyl-5-methylphenyl)-5-fluoro-N2-[4-(1-methylpyrazol-5-yl)amidophenyl)-2,4-pyrimidinediamine [II-21]”, the IC50 was determined as 1760 nM in the assay with Primary human T-cells and 698 nM in assay [1].

Turning to “N2-[3-Aminosulfonyl-4-(4-methylpiperazin-1-yl)phenyl]-5-fluoro-N4-[2-fluoro-4-(5-methylisoxazol-3-yl)methyleneoxyphenyl]-2,4-pyrimidinediamine [Compound I-251]”, the concentration for half-maximal inhibition (IC50) was found to be 155 nM with Primary human T-cells and 167 nM in assay [1].
